These results are taken from patent US20050176812A1, “Method of treating cancer” (priority 2003, published 2005).

A short description of data set [1]: stability of discodermolide infusion solution. The format is physicochemical. The following applies: infusion concentrate mixed with diluent; infusion solution 0.1-2.0 mg/mL, 0.1-1.5 mg/mL, 0.5-8.0 mg/mL or 0.77 mg/mL. As for the experimental part: The amount of diluent used in admixture with the infusion concentrate to form an infusion solution may be chosen so as to obtain a desired concentration of discodermolide in the infusion solution. The amount of diluent used is also chosen so that the solution is stable long enough to be administered. Concentration of infusion solutions are 0.1-2.0 mg/mL, or 0.1-1.5 mg/mL or preferably 0.5-8.0 mg/mL or 0.77 mg/mL. Such solutions are found to be stable for up to 8 hours.

The nature of data set [2]: precipitation on direct i.v. infusion followed by normal saline flush. The note with it: 0.77 mg/mL in 40% propylene glycol, 10% ethanol, 50% normal saline; direct i.v. infusion into the vein followed by normal saline flush. Format: physicochemical. The procedure:
Preferably the infusion solution of the present invention is prepared by mixing the infusion concentrate with a diluent, such as 16.3% W/v ethanol in saline in a suitable container. A preferred formulation comprises 1 mL of 2 mg/mL infusion concentrate diluted with 1.6 mL of 16.3% w/v ethanol in saline to yield an infusion solution containing 0.77 mg/mL discodermolide in 40% propylene glycol, 10% ethanol and 50% normal saline. This solution is administered via iv infusion, or push into Y tubing containing a 0.9% normal saline drip, directly into the vein and the drug solution residue in the tubing will be flushed with normal saline. The volume of discodermolide solution given via i.v. push will vary from 0.3 mL (at the starting does of 0.2 mg or 0.13 mg/m^2) to 26 mL (for a dose of 20 mg or 11.43 mg/m^2) or 43 mL (for a dose of 33 mg or 19.2 mg/m^2).

Turning to `C=C/C=C\[C@H](C)[C@H](OC(N)=O)[C@@H](C)[C@H](O)[C@@H](C)C/C(C)=C\[C@H](C)[C@@H](O)[C@@H](C)/C=C\[C@@H](O)C[C@@H]1OC(=O)[C@H](C)[C@@H](O)[C@H]1C` [discodermolide], the “stability of infusion solution (time stable)” value in data set [1] is given as “up to 8 hours”. Moreover, the precipitation of discodermolide entry in data set [2] is on record as “will not cause any precipitation”.
